Measured values published in ChEMBL document CHEMBL3885881, “DrugMatrix”.

Organism: Rattus norvegicus
Experiment: DrugMatrix - Regimen: Daily Repeat
Type: toxicity, organism-based, Sprague-Dawley
Design: regimen Daily Repeat, gender Male, age 6-8 weeks
Conditions: in vivo, po, route oral GAVAGE, vehicle 100 % WATER; for ABSOLUTE BASOPHIL / ABSOLUTE EOSINOPHIL / ABSOLUTE LYMPHOCYTE / ABSOLUTE MONOCYTE / ABSOLUTE SEGMENTED NEUTROPHIL / BASOPHIL / EOSINOPHIL / ERYTHROCYTE COUNT / HEMATOCRIT / HEMOGLOBIN / LEUKOCYTE COUNT / LYMPHOCYTE / MEAN CORPUSCULAR HEMOGLOBIN / MEAN CORPUSCULAR HEMOGLOBIN CONCENTRATION / MEAN CORPUSCULAR VOLUME / MONOCYTE / NEUTROPHIL / NUCLEATED RED BLOOD CELLS / PLATELET COUNT: tissue Blood; for ALANINE AMINOTRANSFERASE / ALBUMIN / ALKALINE PHOSPHATASE / ASPARTATE AMINOTRANSFERASE / BLOOD UREA NITROGEN / CARBON DIOXIDE / CHLORIDE / CHOLESTEROL / CREATINE PHOSPHOKINASE / CREATININE / GLUCOSE / LACTATE DEHYDROGENASE / LIPASE / PHOSPHORUS / POTASSIUM / SODIUM / TOTAL BILIRUBIN / TOTAL PROTEIN / URIC ACID: tissue Plasma
[1] = 0 mg/kg, 72 h, dose level Control, time 3 day
[2] = 0 mg/kg, 120 h, dose level Control, time 5 day
[3] = 58 mg/kg, 72 h, dose level Low, time 3 day

Compound: Cc1cn([C@H]2C=C[C@@H](CO)O2)c(=O)[nH]c1=O [STAVUDINE]
- ABSOLUTE BASOPHIL [1]: 0 CELLS/uL
- ABSOLUTE EOSINOPHIL [1]: 0 CELLS/uL
- ABSOLUTE LYMPHOCYTE [1]: 8482.5 CELLS/uL
- ABSOLUTE MONOCYTE [1]: 63.83 CELLS/uL
- ABSOLUTE SEGMENTED NEUTROPHIL [1]: 887 CELLS/uL
- BASOPHIL [1]: 0%
- EOSINOPHIL [1]: 0%
- ERYTHROCYTE COUNT [1]: 5.49 x10E6/uL
- HEMATOCRIT [1]: 34.5%
- HEMOGLOBIN [1]: 13.33 G/DL
- LEUKOCYTE COUNT [1]: 9.43 x10E3/uL
- LYMPHOCYTE [1]: 90.17%
- MEAN CORPUSCULAR HEMOGLOBIN [1]: 24.3 pg
- MEAN CORPUSCULAR HEMOGLOBIN CONCENTRATION [1]: 38.63 G/DL
- MEAN CORPUSCULAR VOLUME [1]: 62.88 fL
- MONOCYTE [1]: 0.67%
- NEUTROPHIL [1]: 9.17%
- NUCLEATED RED BLOOD CELLS [1]: 0.67 /100WBC
- PLATELET COUNT [1]: 1022.83 x10E3/uL
- ALANINE AMINOTRANSFERASE [1]: 50.5 u/L
- ALBUMIN [1]: 4.08 G/DL
- ALKALINE PHOSPHATASE [1]: 368.33 u/L
- ASPARTATE AMINOTRANSFERASE [1]: 87.5 u/L
- BLOOD UREA NITROGEN [1]: 12.83 mg/dL
- CARBON DIOXIDE [1]: 32.83 mmol/L
- CHLORIDE [1]: 99.67 MEQ/L
- CHOLESTEROL [1]: 79.67 mg/dL
- CREATINE PHOSPHOKINASE [1]: 585 u/L
- CREATININE [1]: 0.22 mg/dL
- GLUCOSE [1]: 135.67 mg/dL
- LACTATE DEHYDROGENASE [1]: 171 u/L
- LIPASE [1]: 9.5 u/L
- PHOSPHORUS [1]: 11.18 mg/dL
- POTASSIUM [1]: 6.25 MEQ/L
- SODIUM [1]: 144.87 MEQ/L
- TOTAL BILIRUBIN [1]: 0.2 mg/dL
- TOTAL PROTEIN [1]: 6.08 G/DL
- URIC ACID [1]: 0.65 mg/dL
- ABSOLUTE BASOPHIL [2]: 0 CELLS/uL
- ABSOLUTE EOSINOPHIL [2]: 14.5 CELLS/uL
- ABSOLUTE LYMPHOCYTE [2]: 7596.17 CELLS/uL
- ABSOLUTE MONOCYTE [2]: 69.67 CELLS/uL
- ABSOLUTE SEGMENTED NEUTROPHIL [2]: 503 CELLS/uL
- BASOPHIL [2]: 0%
- EOSINOPHIL [2]: 0.17%
- ERYTHROCYTE COUNT [2]: 5.49 x10E6/uL
- HEMATOCRIT [2]: 34.72%
- HEMOGLOBIN [2]: 13.47 G/DL
- LEUKOCYTE COUNT [2]: 8.18 x10E3/uL
- LYMPHOCYTE [2]: 92.17%
- MEAN CORPUSCULAR HEMOGLOBIN [2]: 24.57 pg
- MEAN CORPUSCULAR HEMOGLOBIN CONCENTRATION [2]: 38.82 G/DL
- MEAN CORPUSCULAR VOLUME [2]: 63.3 fL
- MONOCYTE [2]: 1%
- NEUTROPHIL [2]: 6.67%
- NUCLEATED RED BLOOD CELLS [2]: 0 /100WBC
- PLATELET COUNT [2]: 1141 x10E3/uL
- ALANINE AMINOTRANSFERASE [2]: 48.33 u/L
- ALBUMIN [2]: 4.07 G/DL
- ALKALINE PHOSPHATASE [2]: 395.67 u/L
- ASPARTATE AMINOTRANSFERASE [2]: 85.67 u/L
- BLOOD UREA NITROGEN [2]: 15.83 mg/dL
- CARBON DIOXIDE [2]: 31.33 mmol/L
- CHLORIDE [2]: 100.83 MEQ/L
- CHOLESTEROL [2]: 62.33 mg/dL
- CREATINE PHOSPHOKINASE [2]: 248.33 u/L
- CREATININE [2]: 0.2 mg/dL
- GLUCOSE [2]: 135.67 mg/dL
- LACTATE DEHYDROGENASE [2]: 141.33 u/L
- LIPASE [2]: 9.5 u/L
- PHOSPHORUS [2]: 10.73 mg/dL
- POTASSIUM [2]: 6.07 MEQ/L
- SODIUM [2]: 145.35 MEQ/L
- TOTAL BILIRUBIN [2]: 0.22 mg/dL
- TOTAL PROTEIN [2]: 6.12 G/DL
- URIC ACID [2]: 0.63 mg/dL
- ABSOLUTE BASOPHIL [3]: 0 CELLS/uL
- ABSOLUTE EOSINOPHIL [3]: 22.67 CELLS/uL
- ABSOLUTE LYMPHOCYTE [3]: 7881 CELLS/uL
- ABSOLUTE MONOCYTE [3]: 172.33 CELLS/uL
- ABSOLUTE SEGMENTED NEUTROPHIL [3]: 1024 CELLS/uL
- BASOPHIL [3]: 0%
- EOSINOPHIL [3]: 0.33%
- ERYTHROCYTE COUNT [3]: 5.09 x10E6/uL
- HEMATOCRIT [3]: 32.43%
- HEMOGLOBIN [3]: 12.77 G/DL
- LEUKOCYTE COUNT [3]: 9.1 x10E3/uL
- LYMPHOCYTE [3]: 86.67%
- MEAN CORPUSCULAR HEMOGLOBIN [3]: 25.1 pg
- MEAN CORPUSCULAR HEMOGLOBIN CONCENTRATION [3]: 39.37 G/DL
- MEAN CORPUSCULAR VOLUME [3]: 63.77 fL
- MONOCYTE [3]: 2%
- NEUTROPHIL [3]: 11%
- NUCLEATED RED BLOOD CELLS [3]: 1 /100WBC
- PLATELET COUNT [3]: 1073 x10E3/uL
- ALANINE AMINOTRANSFERASE [3]: 58.67 u/L
- ALBUMIN [3]: 4.17 G/DL
- ALKALINE PHOSPHATASE [3]: 410.33 u/L
- ASPARTATE AMINOTRANSFERASE [3]: 82.67 u/L
- BLOOD UREA NITROGEN [3]: 12 mg/dL
- CARBON DIOXIDE [3]: 33 mmol/L
- CHLORIDE [3]: 99 MEQ/L
- CHOLESTEROL [3]: 75 mg/dL
- CREATINE PHOSPHOKINASE [3]: 267 u/L
- CREATININE [3]: 0.33 mg/dL
- GLUCOSE [3]: 133.33 mg/dL
- LACTATE DEHYDROGENASE [3]: 130.33 u/L
- LIPASE [3]: 10 u/L
- PHOSPHORUS [3]: 11.33 mg/dL
- POTASSIUM [3]: 6.27 MEQ/L
- SODIUM [3]: 145.07 MEQ/L
- TOTAL BILIRUBIN [3]: 0.23 mg/dL
- TOTAL PROTEIN [3]: 6 G/DL
- URIC ACID [3]: 0.77 mg/dL
